Where a name gives a salt, the structure may show the parent alone.
What was measured:
[1] = (§1) HARVARD: Cytotoxicity in HepG2 cell line; conditions: human
Plasmodium berghei = assay: HARVARD: Inhibition of liver stage Plasmodium berghei infection in HepG2 cells; format: functional, organism-based, ANKA
Plasmodium falciparum [2] = assay: HARVARD: Inhibition of blood stage Plasmodium falciparum 3D7 infection; format: functional, organism-based
Plasmodium falciparum [3] = assay: HARVARD: Inhibition of blood stage Plasmodium falciparum Dd2 infection; format: functional, organism-based
HepG2 = assay: as §1; conditions: human, HepG2 cells
[4] = Plasmodium berghei, ANKA, HepG2

| Compound | IC50 ([1]; HepG2 cells) | IC50 (Plasmodium berghei; [4]) | IC50 (Plasmodium falciparum [3]; Plasmodium falciparum, Dd2) | also measured |
| --- | --- | --- | --- | --- |
| CCCc1nc2c(C)cc(-c3nc4ccccc4n3C)cc2n1Cc1ccc(-c2ccccc2C(=O)O)cc1 | > 10000 nM | 25 nM | > 5000 nM | IC50 (Plasmodium falciparum [2]; Plasmodium falciparum, 3D7): > 5000 nM |
| Nc1nc(Nc2ccc(S(N)(=O)=O)cc2)nn1C(=S)Nc1c(F)cccc1F | > 50000 nM | 472 nM | 258 nM | – |
| Nc1ccc2ncnc(NCCc3ccc(Oc4ccccc4)cc3)c2c1 | 59000 nM | 12 nM | 1170 nM | – |
| CCCCCC[C@H]1C(=O)O[C@H](C)[C@H](NC(=O)c2cccc(NC=O)c2O)C(=O)O[C@@H](C)[C@@H]1OC(=O)CC(C)C [ANTIMYCIN A] | > 100000 nM | 2.3 nM | – | – |
| COc1ccc(CCN2CCC(Nc3nc4ccccc4n3Cc3ccc(F)cc3)CC2)cc1 [ASTEMIZOLE] | 12000 nM | – | – | – |
| O=C1C(O)=C([C@H]2CC[C@H](c3ccc(Cl)cc3)CC2)C(=O)c2ccccc21 [ATOVAQUONE] | > 10000 nM | 0.3 nM | – | – |
| Cc1cc(C2CCCCC2)n(O)c(=O)c1 [CICLOPIROX OLAMINE] | > 100000 nM | 1050 nM | – | – |
| CN1CCC[C@@H]1CCO[C@](C)(c1ccccc1)c1ccc(Cl)cc1 [CLEMASTINE FUMARATE] | – | 951 nM | 456 nM | IC50 ([1]; hepg2): > 50000 nM; IC50 (Plasmodium falciparum [2]; Plasmodium falciparum, 3D7): 658 nM |
| CCN(CC)CCOc1ccc(C(=C(Cl)c2ccccc2)c2ccccc2)cc1 [CLOMIPHENE] | 11000 nM | 219 nM | – | – |
| C[C@@H]1C[C@@H]([C@H](O)CC2CC(=O)NC(=O)C2)C(=O)[C@@H](C)C1 [CYCLOHEXIMIDE] | > 100000 nM | 47 nM | – | – |
| C/C=C/C[C@@H](C)[C@@H](O)[C@H]1C(=O)N[C@@H](CC)C(=O)N(C)CC(=O)N(C)[C@@H](CC(C)C)C(=O)N[C@@H](C(C)C)C(=O)N(C)[C@@H](CC(C)C)C(=O)N[C@@H](C)C(=O)N[C@H](C)C(=O)N(C)[C@@H](CC(C)C)C(=O)N(C)[C@@H](CC(C)C)C(=O)N(C)[C@@H](C(C)C)C(=O)N1C [CYCLOSPORINE] | – | 1.65 nM | – | IC50 (Plasmodium falciparum [2]; Plasmodium falciparum, 3D7): 138 nM |
| COc1cccc2c1C(=O)c1c(O)c3c(c(O)c1C2=O)C[C@@](O)(C(C)=O)C[C@@H]3O[C@H]1C[C@H](N)[C@H](O)[C@H](C)O1 [DAUNORUBICIN] | 9120 nM | 2990 nM | 155 nM | IC50 (Plasmodium falciparum [2]; Plasmodium falciparum, 3D7): 340 nM |
| CCCCCCCCCCOc1cc2c(O)c(C(=O)OCC)cnc2cc1OCC [DECOQUINATE] | > 100000 nM | 5.4 nM | – | – |
| Cc1cc(N)c2ccccc2[n+]1CCCCCCCCCC[n+]1c(C)cc(N)c2ccccc21 [DEQUALINIUM CHLORIDE] | > 100000 nM | 1710 nM | 134 nM | – |
| COc1cccc2c1C(=O)c1c(O)c3c(c(O)c1C2=O)C[C@@](O)(C(=O)CO)C[C@@H]3O[C@H]1C[C@H](N)[C@H](O)[C@H](C)O1 [DOXORUBICIN] | 11100 nM | 886 nM | 58 nM | – |
| CC[C@H]1CN2CCc3cc(OC)c(OC)cc3[C@@H]2C[C@@H]1C[C@H]1NCCc2cc(OC)c(OC)cc21 [EMETINE HYDROCHLORIDE] | 10000 nM | 80 nM | 18 nM | – |
| COc1ccc2nc([S@@+]([O-])Cc3ncc(C)c(OC)c3C)[nH]c2c1 [ESOMEPRAZOLE POTASSIUM] | > 10000 nM | 291 nM | > 50000 nM | IC50 (Plasmodium falciparum [2]; Plasmodium falciparum, 3D7): > 50000 nM |
| CC(=O)O[C@@H]1C[C@H]2C(C)(C)C(=O)C=C[C@]2(C)[C@H]2CC[C@@]3(C)[C@H](c4ccoc4)OC(=O)[C@H]4O[C@]43[C@@]21C [GEDUNIN] | > 100000 nM | 760 nM | – | – |
| CC(=O)[C@]1(O)Cc2c(O)c3c(c(O)c2[C@@H](O[C@H]2C[C@H](N)[C@H](O)[C@H](C)O2)C1)C(=O)c1ccccc1C3=O [IDARUBICIN] | 12300 nM | 6620 nM | > 5000 nM | IC50 (Plasmodium falciparum [2]; Plasmodium falciparum, 3D7): > 5000 nM |

| Compound | IC50 ([1]; HepG2 cells) | IC50 (Plasmodium berghei; [4]) | IC50 (Plasmodium falciparum [3]; Plasmodium falciparum, Dd2) | also measured |
| --- | --- | --- | --- | --- |
| O=C(c1ccc(F)cc1)C1CCN(CCn2c(=O)[nH]c3ccccc3c2=O)CC1 [KETANSERIN TARTRATE] | > 100000 nM | 1340 nM | > 5000 nM | – |
| CC[C@@H](C(=O)[C@@H](C)[C@@H](O)[C@H](C)CCc1ccc(C)c(O)c1C(=O)O)[C@H]1O[C@](CC)([C@H]2CC[C@](O)(CC)[C@H](C)O2)C[C@@H]1C [LASALOCID A SODIUM] | > 100000 nM | 11 nM | – | – |
| CC[C@@]1([C@@H]2O[C@@H]([C@H]3O[C@@](O)(CO)[C@H](C)C[C@@H]3C)C[C@@H]2C)CC[C@H]([C@]2(C)CC[C@]3(C[C@H](O)[C@@H](C)[C@@H]([C@@H](C)[C@@H](OC)[C@H](C)C(=O)O)O3)O2)O1 [MONENSIN SODIUM] | > 100000 nM | – | – | – |
| CC[C@@]1([C@H]2O[C@H]([C@H]3O[C@@](O)(CO)[C@H](C)C[C@@H]3C)C[C@H]2C)CC[C@H]([C@@]2(C)CC[C@]3(C[C@H](O)[C@@H](C)[C@@H]([C@H](C)[C@H](OC)[C@@H](C)C(=O)O)O3)O2)O1 [MONENSIN SODIUM] | – | 0.6 nM | – | – |
| COc1c(C)c2c(c(O)c1C/C=C(\C)CCC(=O)O)C(=O)OC2 [MYCOPHENOLIC ACID] | > 100000 nM | 1000 nM | > 5000 nM | – |
| CCCCCCCCCc1ccc(OCCOCCOCCOCCOCCOCCOCCOCCOCCO)cc1 [NONOXYNOL 9] | 61000 nM | 2310 nM | > 5000 nM | – |
| CC[C@@H]1C=CC=CC[C@H](C)[C@@H](O)[C@@H](C)C(=O)[C@H](C)[C@@H](O)[C@H](C)C(=O)[C@H](C)[C@@H](O)[C@H](C)C=CC(=O)O[C@H]2[C@@H](C)[C@@H](CC1)O[C@@]1(CC[C@@H](C)[C@@H](C[C@H](C)O)O1)[C@@H]2C [OLIGOMYCIN C] | 15000 nM | 0.5 nM | 111 nM | – |
| COc1ccc2[nH]c([S+]([O-])Cc3ncc(C)c(OC)c3C)nc2c1 (configuration not stated) [OMEPRAZOLE] | > 10000 nM | 680 nM | > 50000 nM | IC50 (Plasmodium falciparum [2]; Plasmodium falciparum, 3D7): > 50000 nM |
| CO[C@H](C(=O)[C@@H](O)[C@@H](C)O)[C@@H]1Cc2cc3cc(O[C@H]4C[C@@H](O[C@H]5C[C@@H](O)[C@H](O)[C@@H](C)O5)[C@H](O)[C@@H](C)O4)c(C)c(O)c3c(O)c2C(=O)[C@H]1O[C@H]1C[C@@H](O[C@H]2C[C@@H](O[C@H]3C[C@](C)(O)[C@H](O)[C@@H](C)O3)[C@@H](O)[C@@H](C)O2)[C@H](O)[C@@H](C)O1 [PLICAMYCIN] | > 10000 nM | – | – | – |
| CO[C@H](C(=O)[C@@H](O)[C@@H](C)O)[C@@H]1Cc2cc3cc(O[C@H]4C[C@@H](O[C@@H]5C[C@@H](O)[C@H](O)[C@@H](C)O5)[C@H](O)[C@@H](C)O4)c(C)c(O)c3c(O)c2C(=O)[C@H]1O[C@H]1C[C@@H](O[C@@H]2C[C@@H](O)[C@@H](O[C@@H]3C[C@](C)(O)[C@H](O)[C@@H](C)O3)[C@@H](C)O2)[C@H](O)[C@@H](C)O1 [PLICAMYCIN] | – | 833 nM | 12.5 nM | IC50 (Plasmodium falciparum [2]; Plasmodium falciparum, 3D7): 15 nM |
| COc1cc(NC(C)CCCN)c2ncccc2c1 (configuration not stated) [PRIMAQUINE PHOSPHATE] | > 100000 nM | 7400 nM | 794 nM | – |
| CCCC(C(=O)OCCN(CC)CC)(c1ccccc1)c1ccccc1 [PROADIFEN HYDROCHLORIDE] | 57000 nM | 2780 nM | 722 nM | – |
| CCc1nc(N)nc(N)c1-c1ccc(Cl)cc1 [PYRIMETHAMINE] | > 10000 nM | 4.7 nM | – | – |
| CC[C@@H](C(=O)[C@@H](C)[C@@H](O)[C@H](C)[C@@H]1O[C@@H]([C@@H](CC)C(=O)O)CC[C@@H]1C)[C@H]1O[C@]2(C=C[C@@H](O)[C@]3(CC[C@@](C)([C@H]4CC[C@](O)(CC)[C@H](C)O4)O3)O2)[C@H](C)C[C@@H]1C [SALINOMYCIN SODIUM] | 58000 nM | 2 nM | – | – |
| CC(C)=CC[C@@H](O)C1=CC(=O)c2c(O)ccc(O)c2C1=O [SHIKONIN] | 28100 nM | 1370 nM | > 5000 nM | IC50 (Plasmodium falciparum [2]; Plasmodium falciparum, 3D7): > 5000 nM |
| COc1ccc2[nH]c([S+]([O-])Cc3ncc(C)c(OC)c3C)nc2n1 (configuration not stated) [TENATOPRAZOLE] | > 10000 nM | 224 nM | > 5000 nM | IC50 (Plasmodium falciparum [2]; Plasmodium falciparum, 3D7): > 5000 nM |
| CCCOc1ccccc1-c1nc2nn[nH]c2c(=O)[nH]1 [ZAPRINAST] | > 10000 nM | 7790 nM | 19300 nM | IC50 (Plasmodium falciparum [2]; Plasmodium falciparum, 3D7): > 50000 nM |
| AURANOFIN | – | – | – | IC50 (HepG2): 5600 nM; IC50 (Plasmodium berghei; hepg2): 108 nM; IC50 (Plasmodium falciparum [2]): 343 nM; IC50 (Plasmodium falciparum [3]): 316 nM |

Source: ChEMBL document CHEMBL2092589, “Liver-stage malaria parasites vulnerable to diverse chemical scaffolds” (Proc Natl Acad Sci U S A, 2012)
